Measured values published in PMC7490411 (Signal Transduction and Targeted Therapy, 2020).

Tests used:
TAOK3 = test: KINOMEscan; assay type: binding; conditions: 1000 nM
PRKG1 = test: KINOMEscan; assay type: binding; conditions: 1000 nM
ERK2 = test: KINOMEscan; assay type: binding; conditions: 1000 nM
[1] = system: JAK3(JH1domain-catalytic); test: KINOMEscan; assay type: binding; conditions: 1000 nM
AKT1 = test: KINOMEscan; assay type: binding; conditions: 1000 nM
ACVR2B = test: KINOMEscan; assay type: binding; conditions: 1000 nM
MARK3 = test: KINOMEscan; assay type: binding; conditions: 1000 nM
[2] = system: ABL1(T315I)-phosphorylated; test: KINOMEscan; assay type: binding; conditions: 1000 nM
MLK3 = test: KINOMEscan; assay type: binding; conditions: 1000 nM
p38-beta = test: KINOMEscan; assay type: binding; conditions: 1000 nM
MEK2 = test: KINOMEscan; assay type: binding; conditions: 1000 nM
ABL1-phosphorylated = test: KINOMEscan; assay type: binding; conditions: 1000 nM
FLT3 = test: KINOMEscan; assay type: binding; conditions: 1000 nM
CLK1 = test: KINOMEscan; assay type: binding; conditions: 1000 nM
ASK1 = test: KINOMEscan; assay type: binding; conditions: 1000 nM
SLK = test: KINOMEscan; assay type: binding; conditions: 1000 nM
FLT1 = test: KINOMEscan; assay type: binding; conditions: 1000 nM
BMPR2 = test: KINOMEscan; assay type: binding; conditions: 1000 nM
NIM1 = test: KINOMEscan; assay type: binding; conditions: 1000 nM
BUB1 = test: KINOMEscan; assay type: binding; conditions: 1000 nM
PIP5K2C = test: KINOMEscan; assay type: binding; conditions: 1000 nM
MAP3K2 = test: KINOMEscan; assay type: binding; conditions: 1000 nM
468 kinases/mutants = test: KINOMEscan kinome-wide selectivity profiling; assay type: binding; conditions: 1 μM
Description: Here, we report the discovery of a novel covalent BTK inhibitor, CHMFL-BTK-85 (abbreviated as compd. 85) (chemical structure shown in Fig. 1a), which achieves high potency against BTK and selectivity over other protein kinases. […] To further confirm that compd. 85 could covalently bind to wide-type native BTK in cell, we then conducted a target-engagement assay using the biotinylated analog of compd. 85, i.e., CHMFL-BTK-85B (Supplementary Fig. S2), in REC-1 cell which expresses native BTK kinase. […] To further investigate the selectivity of compd. 85 in the kinome, we then tested it among 468 kinases/mutants with KINOMEscan^TM technology.

[3] = system: ABL1(F317L)-phosphorylated; test: KINOMEscan; assay type: binding; conditions: 1000 nM
DAPK1 = test: KINOMEscan; assay type: binding; conditions: 1000 nM
[4] = system: RSK4(Kin.Dom.2-C-terminal); test: KINOMEscan; assay type: binding; conditions: 1000 nM
ACVRL1 = test: KINOMEscan; assay type: binding; conditions: 1000 nM
AMPK-alpha2 = test: KINOMEscan; assay type: binding; conditions: 1000 nM
CAMK4 = test: KINOMEscan; assay type: binding; conditions: 1000 nM
DYRK2 = test: KINOMEscan; assay type: binding; conditions: 1000 nM
ALK(C1156Y) = test: KINOMEscan; assay type: binding; conditions: 1000 nM
QSK = test: KINOMEscan; assay type: binding; conditions: 1000 nM
HIPK4 = test: KINOMEscan; assay type: binding; conditions: 1000 nM
[5] = system: ABL1(H396P)-phosphorylated; test: KINOMEscan; assay type: binding; conditions: 1000 nM
PRKCI = test: KINOMEscan; assay type: binding; conditions: 1000 nM
EPHA2 = test: KINOMEscan; assay type: binding; conditions: 1000 nM
GRK3 = test: KINOMEscan; assay type: binding; conditions: 1000 nM
PIM3 = test: KINOMEscan; assay type: binding; conditions: 1000 nM
IKK-beta = test: KINOMEscan; assay type: binding; conditions: 1000 nM
BTK = biological target: T1, BTK (Homo sapiens, UniProt Q06187); test: ADP-Glo biochemical kinase assay; conditions: purified BTK protein, read-out: IC50 against BTK
T1 construct: purchased Invitrogen (Carlsbad, CA, USA)
Method: ADP-Glo^TM assay kits from Promega Corporation were used according to instructions. CHMFL-BTK-85 was generally prepared with 1:3 serial dilutions for 4 concentrations (300 nM, 100 nM, 30 nM, and 10 nM). 8 concentrations were used (1 μM to 1 nM) for ATP competition experiments. 2.5 µL BTK (10 ng/µL) was incubated with CHMFL-BTK-85 and CHMFL-BTK-85R for 60 min at room temperature in reaction buffer followed by addition of 2.5 µL ATP/substrate mixture. The assay was conducted for 1 h at 37 °C. After the plate cooled for 5 min at room temperature, 5 μL of ADP-Glo reagent was added into each well to stop the reaction and consume the remaining […] within 40 min. At the end, 10 µL kinase detection reagent was added and incubated for 30 min at room temperature. The luminescence signal was read with an envision Perkin Elmer plate reader (Envision, PE, USA).
The biochemical tests of BMX, BLK, JAK3, TXK, HER2, HER4, ITK, EGFR, and BTK were provided by Invitrogen (Carlsbad, CA, USA).

[6] = system: panel of B-cell lymphoma cell lines; test: anti-proliferative CellTiter-Glo assay, whole panel; assay type: cell-based; conditions: all cell lines of the B-cell lymphoma panel
Method: Cell viability was measured using the CellTiter–Glo assay (Promega, USA) according to the manufacturer’s instructions, and […] was measured in a Bio-red Microplate reader (Bio-Red, USA).

PHKG2 = test: KINOMEscan; assay type: binding; conditions: 1000 nM
RIPK1 = test: KINOMEscan; assay type: binding; conditions: 1000 nM

T1 sequence (Q06187 whole entry): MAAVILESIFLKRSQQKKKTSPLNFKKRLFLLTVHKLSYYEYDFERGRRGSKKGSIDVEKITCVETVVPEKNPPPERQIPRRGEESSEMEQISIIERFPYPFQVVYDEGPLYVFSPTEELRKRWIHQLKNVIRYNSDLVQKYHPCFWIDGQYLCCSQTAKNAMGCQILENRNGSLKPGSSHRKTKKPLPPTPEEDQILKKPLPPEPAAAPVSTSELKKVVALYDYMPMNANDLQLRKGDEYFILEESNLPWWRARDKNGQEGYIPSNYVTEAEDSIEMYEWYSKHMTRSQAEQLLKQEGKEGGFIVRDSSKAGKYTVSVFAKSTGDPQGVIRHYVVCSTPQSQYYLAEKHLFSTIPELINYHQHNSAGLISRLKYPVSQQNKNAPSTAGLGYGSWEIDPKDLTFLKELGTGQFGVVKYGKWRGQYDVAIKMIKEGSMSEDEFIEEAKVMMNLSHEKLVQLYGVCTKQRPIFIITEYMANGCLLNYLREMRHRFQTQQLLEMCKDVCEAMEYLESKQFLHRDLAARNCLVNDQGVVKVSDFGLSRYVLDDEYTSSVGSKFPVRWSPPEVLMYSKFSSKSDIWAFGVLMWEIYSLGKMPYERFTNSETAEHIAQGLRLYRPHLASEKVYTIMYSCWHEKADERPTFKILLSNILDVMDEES

C=CC(=O)Nc1cc(Nc2cc(-c3cccc(NC(=O)c4cc5c(s4)CCCC5)c3C)cn(C)c2=O)ccc1N1CCN(CC)CC1 [CHMFL-BTK-85]
Percent Control (TAOK3): 100% | Percent Control (PRKG1): 93% | Percent Control (ERK2): 91% | Percent Control [1]: 80% | Percent Control (AKT1): 80% | Percent Control (ACVR2B): 99% | Percent Control (MARK3): 100% | Percent Control [2]: 100% | Percent Control (MLK3): 91% | Percent Control (p38-beta): 89% | Percent Control (MEK2): 100% | Percent Control (ABL1-phosphorylated): 72% | Percent Control (FLT3): 80% | Percent Control (CLK1): 88% | Percent Control (ASK1): 86% | Percent Control (SLK): 95% | Percent Control (FLT1): 100% | Percent Control (BMPR2): 100% | Percent Control (NIM1): 100% | Percent Control (BUB1): 100% | Percent Control (PIP5K2C): 85% | Percent Control (MAP3K2): 100% | S Score (1) (468 kinases/mutants): 0.00 | Percent Control [3]: 100% | Percent Control (DAPK1): 98% | Percent Control [4]: 83% | Percent Control (ACVRL1): 100% | Percent Control (AMPK-alpha2): 89% | Percent Control (CAMK4): 100% | Percent Control (DYRK2): 98% | Percent Control (ALK(C1156Y)): 100% | Percent Control (QSK): 100% | Percent Control (HIPK4): 91% | Percent Control [5]: 85% | Percent Control (PRKCI): 100% | Percent Control (EPHA2): 87% | Percent Control (GRK3): 100% | Percent Control (PIM3): 80% | Percent Control (IKK-beta): 100% | IC50 (BTK): 11.5 nM | GI50s [6]: < 2000 nM | Percent Control (PHKG2): 100% | Percent Control (RIPK1): 97%
